Reference: US12162878B2 (HINOVA PHARMACEUTICALS INC., priority 2018, dated 2024)
Several values for one entry are separate records, joined by “and”; a condition that tells them apart may be missing. Equal values may be shown once.

Tests used:
[1] = molecular target: BRDT(D1) (Homo sapiens (Human), UniProt Q58F21); assay: HTRF binding of compounds on BRDT (D1); details: read-out: IC50 against BRDT(D1)
Description: (§1) Homogeneous time-resolved fluorescence technology (HTRF) was used to determine the binding effect of compounds on BRD4 (D1+D2) and BRDT (D1) proteins, as well as AlphaScreen method was used to detect the binding effect of compounds on BRD2 (D1+D2) and BRD3 (D1+D2) proteins.
(§2) The compounds were screened in vitro, and each compound was serially diluted to 10 concentrations. Four proteins BRD4 (D1+D2), BRDT (D1), BRD2 (D1+D2) and BRD3 (D1+D2) were chosen to determine the IC50 values of compounds (see Table 1).
(§3) 4. Compound treatment: The test compound was dissolved in dimethyl sulfoxide (DMSO), and the storage concentration was 10 mM.
(§4) 5. Steps for Homogeneous Time-Resolved Fluorescence Detection:
(§5) 1) According to the arrangement of the detection plate, all compounds were diluted in Echo plate.
(§6) The final dilution concentration of DMSO is 0.1%.
(§7) 2) The compound or DMSO was transferred to a 384-well detection plate with the Echo automatic sampler.
(§8) 3) Two-fold concentration of the mixture of protein and peptide was added to the detection plate.
(§9) 4) Two-fold concentration of mixed detection solution was added to the test plate, and shaken for 30 s.
(§10) 5) Incubating for 2 h at room temperature.
(§11) 6) Fluorescence signal was read on Envision multi-function microplate reader (excitation light wavelength being 340 nm, and emission light wavelength being 615 nm and 665 nm).
(§12) The experimental data were recorded in an Excel file, and equation (1) was used to obtain the inhibition rate. Inh%=(Max−Signal)/(Max−Min)*100 Equation (1):
(§13) The obtained data was recorded in GraphPad software, and equation (2) was used to provide the IC50 values. Y=Bottom+(Top−Bottom)/(1+10^((Log IC50−X)*Hill Slope)) Equation (2): […]
(§14) Y axis was the inhibition rate, and X axis was the compound concentration.

[2] = molecular target: BRD2(1,2) (Homo sapiens (Human), UniProt P25440); assay: AlphaScreen binding of compounds on BRD2 (D1+D2); details: read-out: IC50 against BRD2(1,2)
Description: as §1, §2, §3
(§15) 6. AlphaScreen Detection Procedures:
(§16) 1) Preparing One-Fold Concentration of Detection Buffer
(§17) One-fold concentration of detection buffer was prepared (Improved HEPES buffer)
(§18) 2) Gradient Dilution of Compounds
(§19) Echo automatic sampler was used to transfer the compound to the detection plate for gradient dilution, so that the final concentration of dimethyl sulfoxide was 0.1%.
(§20) 3) Preparation of Protein Solution
(§21) The protein was dissolved in one-fold concentration of detection buffer.
(§22) 4) Preparation of Substrate Solution
(§23) The peptide was dissolved in one-fold concentration of detection buffer to prepare the substrate solution.
(§24) 5) 5 μL protein solution was transferred to the detection plate, and one-fold concentration of detection buffer (5 μL) was placed in the negative control wells.
(§25) 6) The plate was incubated for 15 min at room temperature.
(§26) 7) 5 μL substrate solution was added to each well to start the reaction.
(§27) 8) The plate was incubated for additional 60 min at room temperature.
(§28) 9) Preparation of acceptor solution and donor solution in one-fold concentration of assay buffer Acceptor solution (15 μL) and donor solution (15 μL) were respectively added, and then incubated at room temperature for 60 min and protected against exposure to light.
(§29) 10) The endpoint was read in EnSpire and Alpha mode.
(§30) The experimental data were recorded in an Excel file and equation (1) was used to get the inhibition rate. Inh%=(Max−Signal)/(Max−Min)*100 Equation (1):
(§31) The obtained data were input into GraphPad software, and equation (2) was used to obtain the IC50 value. Y=Bottom+(Top−Bottom)/(1+10^((Log IC50−X)*Hill Slope)) Formula (2): […]
(§32) Wherein, Y axis was the inhibition rate, and the X axis was the compound concentration.

[3] = molecular target: BRD4(1,2) (Homo sapiens (Human), UniProt O60885); assay: HTRF binding of compounds on BRD4 (D1+D2); details: read-out: IC50 against BRD4(1,2)
Description: as §1, §2, §3, §4, §5, §6, §7, §8, §9, §10, §11, §12, §13, §14

[4] = molecular target: BRD3(1,2) (Homo sapiens (Human), UniProt Q15059); assay: AlphaScreen binding of compounds on BRD3 (D1+D2); details: read-out: IC50 against BRD3(1,2)
Description: as §1, §2, §3, §15, §16, §17, §18, §19, §20, §21, §22, §23, §24, §25, §26, §27, §28, §29, §30, §31, §32

[5] = test system: CWR22RV1 cells; assay: Inhibition of proliferation of CWR22RV1 cells (CCK-8); assay type: cell-based, human; details: 6 days
Summary of the method: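 Cells seeded at 1500/well, cultured overnight, then exposed to compounds in 3-fold dilutions (9 concentrations from 10 μM top final, 0.1% DMSO) for 6 days at 37 °C. Viability read by CCK-8 absorbance at 450 nm after 2.5 h; IC50 from dose-response inhibition fit.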

Sequence of BRD3(1,2) (Q15059 29-417): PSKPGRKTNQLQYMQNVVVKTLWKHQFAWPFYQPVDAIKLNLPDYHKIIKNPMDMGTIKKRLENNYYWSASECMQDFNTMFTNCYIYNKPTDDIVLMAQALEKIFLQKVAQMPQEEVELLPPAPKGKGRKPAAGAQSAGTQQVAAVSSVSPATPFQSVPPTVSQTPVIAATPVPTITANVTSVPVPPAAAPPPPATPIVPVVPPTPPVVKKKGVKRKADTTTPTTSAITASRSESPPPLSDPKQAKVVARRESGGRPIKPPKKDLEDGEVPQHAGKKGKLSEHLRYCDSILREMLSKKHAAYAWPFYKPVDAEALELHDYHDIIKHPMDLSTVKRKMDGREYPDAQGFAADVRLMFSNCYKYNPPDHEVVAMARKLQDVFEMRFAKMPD
Sequence of BRD2(1,2) (P25440 65-459): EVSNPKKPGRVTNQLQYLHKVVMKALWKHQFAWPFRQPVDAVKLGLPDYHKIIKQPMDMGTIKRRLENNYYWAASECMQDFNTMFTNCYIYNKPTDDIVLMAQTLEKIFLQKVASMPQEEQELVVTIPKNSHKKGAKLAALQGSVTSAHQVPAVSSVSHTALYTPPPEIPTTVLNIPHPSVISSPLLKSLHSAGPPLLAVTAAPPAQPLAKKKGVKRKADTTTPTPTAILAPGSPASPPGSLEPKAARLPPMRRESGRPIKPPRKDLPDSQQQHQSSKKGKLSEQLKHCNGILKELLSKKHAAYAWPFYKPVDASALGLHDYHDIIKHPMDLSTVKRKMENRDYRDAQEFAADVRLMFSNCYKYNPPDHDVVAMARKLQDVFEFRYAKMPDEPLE

| SMILES | IC50 [1] | IC50 [2] | IC50 [3] | IC50 [4] | IC50 ([5]; Homo sapiens, CWR22Rv1, 144 h) | IC50 [5] |
| --- | --- | --- | --- | --- | --- | --- |
| [2H]C([2H])([2H])n1cc(-c2cc(S(=O)(=O)NC)ccc2N2CCC3(CC2)CC3)c2cc[nH]c2c1=O [Compound 202, N-methyl-3-(6-trideuteromethyl-7-oxo-6,7-dihydro-1H-pyrrolo [2,3-c]pyridin-4-yl)-4-(6-aza-spiro[2.5]octan-6-yl)benzenesulfonamide] | 16 nM | 1.6 nM | 5.1 nM | 4.5 nM | 0.5 nM | – |
| [2H]C([2H])([2H])n1cc(-c2cc(S(N)(=O)=O)c(F)cc2N2CCC3(CC2)CC3(F)F)c2cc[nH]c2c1=O [Compound 217, 4-(1,1-difluoro-6-aza-spiro[2.5]octan-6-yl)-2-fluoro-5-(6-trideuteromethyl-7-oxo-6,7-dihydro-1H-pyrrolo[2,3-c]pyridin-4-yl)benzenesulfonamide] | 20 nM and 19 nM | 1.4 nM and 1.5 nM | 6.2 nM and 4.9 nM | 4.9 nM and 4.5 nM | – | – |
| [2H]C([2H])([2H])n1cc(-c2cc(S(=O)(=O)N3C[C@H](O)C[C@H]3C(=O)O)ccc2N2CCC3(CC2)CC3(F)F)c2cc[nH]c2c1=O [Compound 252, (2S,4R)-1-((4-(1,1-difluoro-6-aza-spiro[2.5]octan-6-yl)-3-(6-trideuteromethyl-7-oxo-6,7-dihydro-1H-pyrrolo[2,3-c]pyridin-4-yl)phenyl)sulfonyl)-4-hydroxylpyrrolidin-2-carboxylic acid] | 830 nM | 160 nM | 680 nM | 240 nM | – | – |
| CCS(=O)(=O)Nc1ccc(N2CCC3(CC2)CC3(F)F)c(-c2cn(C)c(=O)c3[nH]ccc23)c1 [Compound 193, N-(4-(1,1-difluoro-6-aza-spiro[2.5]octan-6-yl)-3-(6-methyl-7-oxo-6,7-dihydro-1H-pyrrolo[2,3-c]pyridin-4-yl)phenyl)ethanesulfonamide] | 32 nM | 2.7 nM | 14 nM | 5.8 nM | 4 nM | – |
| [2H]C([2H])([2H])n1cc(-c2cc(S(=O)(=O)C(C)(C)C(=O)O)ccc2N2CCC3(CC2)CC3(F)F)c2cc[nH]c2c1=O [Compound 239, 2-((4-(1,1-difluoro-6-aza-spiro[2.5]octan-6-yl)-3-(6-trideuteromethyl-7-oxo-6,7-dihydro-1H-pyrrolo[2,3-c]pyridin-4-yl)phenyl)sulfonyl)-2-methylpropionic acid] | 18 nM | 3 nM | 14 nM | 5.2 nM | 7.8 nM | – |
| [2H]C([2H])([2H])NS(=O)(=O)c1cnc(N2CCC3(CC2)CC3(F)F)c(-c2cn(C([2H])([2H])[2H])c(=O)c3[nH]ccc23)c1 [Compound 213, 6-(1,1-difluoro-6-aza-spiro[2.5]octan-6-yl)-N-trideuteromethyl-5-(6-trideuteromethyl-7-oxo-6,7-dihydro-1H-pyrrolo[2,3-c]pyridin-4-yl) pyridin-3-sulfonamide] | 15 nM | 1.6 nM | 4.1 nM | 4.4 nM | – | – |
| [2H]C([2H])([2H])n1cc(-c2cc(S(=O)(=O)CC)cnc2N2CCC3(CC2)CC3(F)F)c2cc[nH]c2c1=O [Compound 215, 4-(2-(1,1-difluoro-6-aza-spiro[2.5]octan-6-yl)-5-(ethylsulfonyl)pyridin-3-yl)-6-trideuteromethyl-1H-pyrrolo[2,3-c]pyridin-7(6H)-one] | 16 nM | 2.9 nM | 5.3 nM | 5 nM | – | – |
| [2H]C([2H])([2H])n1cc(-c2cc(S(C)(=O)=O)ccc2N2CCC3(CC2)CC3)c2cc[nH]c2c1=O [Compound 56, 6-trideuteromethyl-4-(5(methylsulfonyl)-2-(6-aza-spiro[2.5]octan-6-yl)phenyl)-1H-pyrrolo[2,3-c]pyridin-7(6H)-one] | 21 nM | 1.1 nM | 7.1 nM | 4.3 nM | 3 nM | – |

The next lines start with results.

| IC50 [1] | IC50 [2] | IC50 [3] | IC50 [4] | SMILES | IC50 ([5]; Homo sapiens, CWR22Rv1, 144 h) | IC50 [5] |
| --- | --- | --- | --- | --- | --- | --- |
| 13 nM | 1.2 nM | 3.4 nM | 3.9 nM | [2H]C([2H])([2H])n1cc(-c2cc(S(N)(=O)=O)ccc2N2CCC3(CC2)CC3(F)F)c2cc[nH]c2c1=O [Compound 251, 4-(1,1-difluoro-6-aza-spiro[2.5]octan-6-yl)-3-(6-trideuteromethyl-7-oxo-6,7-dihydro-1H-pyrrolo[2,3-c]pyridin-4-yl)benzenesulfonamide] | – | – |
| 17 nM | 1.2 nM | 5.8 nM | 4.1 nM | [2H]C([2H])([2H])n1cc(-c2cc(S(=O)(=O)N3CC[C@H](O)C3)ccc2N2CCC3(CC2)CC3(F)F)c2cc[nH]c2c1=O [Compound 241, (S)-4-(2-(1,1-difluoro-6-aza-spiro[2.5]octan-6-yl)-5-((3-hydroxylpyrrolidin-1-yl)sulfonyl)phenyl)-6-trideuteromethyl-1H-pyrrolo[2,3-c]pyridin-7(6H)-one] | 1.7 nM | – |
| 13 nM | 1.7 nM | 4.3 nM | 4.6 nM | [2H]C([2H])([2H])n1cc(-c2cc(S(=O)(=O)NC)cnc2N2CCC3(CC2)CC3(F)F)c2cc[nH]c2c1=O [Compound 212, 6-(1,1-difluoro-6-aza-spiro[2.5]octan-6-yl)-N-methyl-5-(6-trideuteromethyl-7-oxo-6,7-dihydro-1H-pyrrolo[2,3-c]pyridin-4-yl)pyridin-3-sulfonamide] | – | – |
| 21 nM | 1.2 nM | 6.4 nM | 4.3 nM | [2H]C([2H])([2H])n1cc(-c2cc(S(=O)(=O)N3CC[C@@H](O)C3)ccc2N2CCC3(CC2)CC3(F)F)c2cc[nH]c2c1=O [Compound 240, (R)-4-(2-(1,1-difluoro-6-aza-spiro[2.5]octan-6-yl)-5-((3-hydroxylpyrrolidin-1-yl)sulfonyl)phenyl)-6-trideuteromethyl-1H-pyrrolo[2,3-c]pyridin-7(6H)-one] | 4.8 nM | – |
| 19 nM | 1.4 nM | 8.9 nM | 5.3 nM | [2H]C([2H])([2H])n1cc(-c2cc(S(=O)(=O)N3CC[C@H](O)C3)cnc2N2CCC3(CC2)CC3)c2cc[nH]c2c1=O [Compound 243] | 1.3 nM | – |
| 19 nM | 6.5 nM | 10 nM | 7.4 nM | [2H]C([2H])([2H])n1cc(-c2cc(S(=O)(=O)N(C)C)ccc2N2CCC3(CC2)CC3(F)F)c2cc[nH]c2c1=O [Compound 204, 4-(1,1-difluoro-6-aza-spiro[2.5]octan-6-yl)-N,N-dimethyl-3-(6-trideuteromethyl-7-oxo-6,7-dihydro-1H-pyrrolo[2,3-c]pyridin-4-yl)benzenesulfonamide] | 0.7 nM | – |
| 19 nM | 1.5 nM | 9.9 nM | 5.3 nM | [2H]C([2H])([2H])n1cc(-c2cc(S(=O)(=O)N3CC[C@@H](O)C3)cnc2N2CCC3(CC2)CC3)c2cc[nH]c2c1=O [Compound 242] | 2.2 nM | – |
| 15 nM | 1.5 nM | 4.3 nM | 4.1 nM | [2H]C([2H])([2H])n1cc(-c2cc(S(=O)(=O)CC)ccc2N2CCC3(CC2)CC3(F)F)c2cc[nH]c2c1=O [Compound 250, 4-(2-(1,1-difluoro-6-aza-spiro[2.5]octan-6-yl)-5-(ethylsulfonyl)phenyl)-6-trideuteromethyl-1H-pyrrolo[2,3-c]pyridin-7(6H)-one] | – | 120 nM |
